Test results reported in patent publication US20260137703A1, “2-AMINO-PYRIDO[2,3-D]PYRIMIDIN-7(8H)-ONE AND 7-AMINO-1-PYRIMIDO[4,5-D]PYRIMIDIN-2(1 H)-ONE DERIVATIVES AS EGFR INHIBITORS FOR THE TREATMENT OF CANCER” (Cancer Research Technology Limited, priority 2022, published 2026).
Where two headings read alike, the source gives them in different places.

Experiments:
[1] = target: T1, Phospho-EGFR (Tyr1068) in H1975 cells (Homo sapiens, UniProt P00533, L858R/T790M); experiment: HTRF pEGFR/total EGFR in H1975 cells; format: cell-based; details: ratio pEGFR/total EGFR, compound 3 hours
T1 construct: host or cells: H1975
T1 sequence (P00533 25-1210 T790M/L858R): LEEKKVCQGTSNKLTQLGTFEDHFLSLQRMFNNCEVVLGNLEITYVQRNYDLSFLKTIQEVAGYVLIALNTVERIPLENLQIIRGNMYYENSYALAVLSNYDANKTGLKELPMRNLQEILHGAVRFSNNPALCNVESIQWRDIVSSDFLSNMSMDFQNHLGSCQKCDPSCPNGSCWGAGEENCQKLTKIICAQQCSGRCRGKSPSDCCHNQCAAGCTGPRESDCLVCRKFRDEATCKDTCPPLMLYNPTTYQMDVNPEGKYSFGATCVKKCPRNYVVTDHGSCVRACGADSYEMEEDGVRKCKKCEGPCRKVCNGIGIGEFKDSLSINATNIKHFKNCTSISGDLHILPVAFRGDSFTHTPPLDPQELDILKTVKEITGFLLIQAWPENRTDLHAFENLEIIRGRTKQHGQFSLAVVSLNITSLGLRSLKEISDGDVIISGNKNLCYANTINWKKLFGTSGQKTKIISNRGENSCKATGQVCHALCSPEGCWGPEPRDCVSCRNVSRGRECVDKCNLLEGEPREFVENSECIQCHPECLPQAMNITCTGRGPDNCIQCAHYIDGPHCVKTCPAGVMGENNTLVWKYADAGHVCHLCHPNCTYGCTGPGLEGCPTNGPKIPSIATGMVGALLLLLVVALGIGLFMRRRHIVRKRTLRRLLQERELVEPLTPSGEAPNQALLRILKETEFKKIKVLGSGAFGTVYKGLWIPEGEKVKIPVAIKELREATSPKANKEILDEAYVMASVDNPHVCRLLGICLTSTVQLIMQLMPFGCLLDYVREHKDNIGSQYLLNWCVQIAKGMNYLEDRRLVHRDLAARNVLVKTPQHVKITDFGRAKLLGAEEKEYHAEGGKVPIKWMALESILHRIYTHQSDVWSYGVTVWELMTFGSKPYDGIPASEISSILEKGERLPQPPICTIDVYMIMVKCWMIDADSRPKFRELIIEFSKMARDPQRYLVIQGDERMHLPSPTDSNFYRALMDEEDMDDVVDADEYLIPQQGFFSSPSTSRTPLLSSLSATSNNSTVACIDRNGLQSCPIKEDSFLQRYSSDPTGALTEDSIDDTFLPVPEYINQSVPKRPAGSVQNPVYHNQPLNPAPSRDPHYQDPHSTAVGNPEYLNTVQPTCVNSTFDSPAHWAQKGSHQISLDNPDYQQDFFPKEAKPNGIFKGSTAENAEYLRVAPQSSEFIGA
Method in brief: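 H1975 cells (EGFR L858R/T790M) treated 3 h with compound in 0.1% DMSO, in duplicate, 24 h after plating. Lysates assayed by HTRF for pEGFR (Tyr1068) and total EGFR at 665/620 nm; values are pEGFR/total EGFR ratio as percent of 0 μM control.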

[2] = target: CtermHisTag-mEGFR Wild type (Homo sapiens, UniProt P00533)
CtermHisTag-mEGFR Wild type, sequence (P00533 whole entry): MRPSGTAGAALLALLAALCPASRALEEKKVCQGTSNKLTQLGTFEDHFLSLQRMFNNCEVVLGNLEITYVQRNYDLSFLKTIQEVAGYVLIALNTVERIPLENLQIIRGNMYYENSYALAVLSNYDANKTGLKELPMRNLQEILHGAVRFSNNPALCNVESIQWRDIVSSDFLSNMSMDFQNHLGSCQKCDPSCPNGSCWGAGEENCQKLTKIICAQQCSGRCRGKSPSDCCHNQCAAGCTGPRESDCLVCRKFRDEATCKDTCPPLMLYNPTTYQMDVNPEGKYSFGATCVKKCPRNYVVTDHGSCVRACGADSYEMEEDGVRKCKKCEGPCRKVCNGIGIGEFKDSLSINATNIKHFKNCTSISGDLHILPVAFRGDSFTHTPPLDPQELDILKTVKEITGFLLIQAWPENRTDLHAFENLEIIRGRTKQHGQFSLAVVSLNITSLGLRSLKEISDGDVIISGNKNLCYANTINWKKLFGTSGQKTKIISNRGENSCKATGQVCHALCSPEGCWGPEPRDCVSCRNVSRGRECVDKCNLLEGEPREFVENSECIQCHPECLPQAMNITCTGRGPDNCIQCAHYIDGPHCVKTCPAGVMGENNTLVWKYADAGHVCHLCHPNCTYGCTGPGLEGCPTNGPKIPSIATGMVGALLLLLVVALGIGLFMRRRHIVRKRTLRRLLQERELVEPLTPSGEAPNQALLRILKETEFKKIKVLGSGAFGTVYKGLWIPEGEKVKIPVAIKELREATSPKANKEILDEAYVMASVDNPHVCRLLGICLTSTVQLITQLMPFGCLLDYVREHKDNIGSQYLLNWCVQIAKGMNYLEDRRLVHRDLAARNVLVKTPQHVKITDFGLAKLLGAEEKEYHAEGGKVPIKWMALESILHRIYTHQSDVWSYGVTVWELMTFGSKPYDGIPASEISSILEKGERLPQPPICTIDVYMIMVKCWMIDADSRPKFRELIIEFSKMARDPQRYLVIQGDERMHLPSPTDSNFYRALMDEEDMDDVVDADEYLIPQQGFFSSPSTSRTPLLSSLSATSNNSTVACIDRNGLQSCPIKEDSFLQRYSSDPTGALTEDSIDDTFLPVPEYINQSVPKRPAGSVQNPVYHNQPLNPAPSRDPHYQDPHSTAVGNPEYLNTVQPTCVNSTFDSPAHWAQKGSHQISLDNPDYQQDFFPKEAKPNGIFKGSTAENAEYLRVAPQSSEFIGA

[3] = target: T2, Phospho-EGFR (Tyr1068) in H1975 C797S cells (CRISPR-edited EGFR C797S) (Homo sapiens, UniProt P00533, C797S/L858R/T790M); experiment: HTRF pEGFR/total EGFR in H1975 C797S cells; format: cell-based; details: ratio pEGFR/total EGFR, compound 3 hours
T2 construct: host or cells: H1975 C797S (CRISPR-edited)
T2 sequence (P00533 25-1210 T790M/C797S/L858R): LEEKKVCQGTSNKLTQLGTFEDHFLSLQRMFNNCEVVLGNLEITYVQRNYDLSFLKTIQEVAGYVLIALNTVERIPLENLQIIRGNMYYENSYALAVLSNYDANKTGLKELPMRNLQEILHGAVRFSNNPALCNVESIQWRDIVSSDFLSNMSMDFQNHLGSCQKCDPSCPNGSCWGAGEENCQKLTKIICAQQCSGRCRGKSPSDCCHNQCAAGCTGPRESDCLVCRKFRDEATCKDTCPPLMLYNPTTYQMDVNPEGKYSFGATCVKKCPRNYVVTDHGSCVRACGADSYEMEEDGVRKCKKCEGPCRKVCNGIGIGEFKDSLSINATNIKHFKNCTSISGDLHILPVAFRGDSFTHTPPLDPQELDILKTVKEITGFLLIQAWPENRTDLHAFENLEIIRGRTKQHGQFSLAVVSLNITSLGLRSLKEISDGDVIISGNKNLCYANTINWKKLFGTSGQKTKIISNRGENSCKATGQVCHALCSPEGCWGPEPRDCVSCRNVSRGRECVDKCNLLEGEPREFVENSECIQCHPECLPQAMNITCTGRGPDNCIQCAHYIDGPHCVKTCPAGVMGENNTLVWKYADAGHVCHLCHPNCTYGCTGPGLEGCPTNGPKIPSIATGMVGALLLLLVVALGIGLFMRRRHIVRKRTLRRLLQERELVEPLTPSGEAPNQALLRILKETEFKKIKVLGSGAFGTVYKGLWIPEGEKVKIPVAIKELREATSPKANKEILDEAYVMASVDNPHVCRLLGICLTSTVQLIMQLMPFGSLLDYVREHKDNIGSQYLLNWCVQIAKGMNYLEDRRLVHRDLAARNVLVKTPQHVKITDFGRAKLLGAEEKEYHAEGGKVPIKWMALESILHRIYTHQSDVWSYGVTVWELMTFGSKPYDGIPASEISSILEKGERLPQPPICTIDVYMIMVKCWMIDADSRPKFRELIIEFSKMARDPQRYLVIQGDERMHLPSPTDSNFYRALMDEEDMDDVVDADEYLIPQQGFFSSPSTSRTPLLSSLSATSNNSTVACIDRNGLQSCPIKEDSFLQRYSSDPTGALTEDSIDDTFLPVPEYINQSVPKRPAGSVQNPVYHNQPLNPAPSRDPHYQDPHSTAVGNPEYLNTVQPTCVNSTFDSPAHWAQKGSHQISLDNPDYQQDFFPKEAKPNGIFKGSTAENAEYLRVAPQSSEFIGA
Method in brief: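 Adhered H1975 C797S cells got compound for 3 h in duplicate at 0.1% DMSO final, then were lysed 30 min at room temperature. HTRF kits quantified phospho-EGFR (Tyr1068) and total EGFR (665/620 nm); results are pEGFR/total EGFR ratio as percent of 0 μM control.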

CC(C)[Si](C#Cc1cc(=O)n2c3nc(ncc13)Nc1ccc(N3CCN(C)CC3)c(c1)OCCC[C@H]2C)(C(C)C)C(C)C
ring closure, isolated yield (from CC(C)[Si](C#Cc1cc(=O)[nH]c2nc(Nc3ccc(N4CCN(C)CC4)c(OCCC[C@H](C)O)c3)ncc12)(C(C)C)C(C)C, other bond, 13-membered ring, PPh3/DIAD, THF, 24.2 mM): 18%

CC(C)[Si](C#Cc1cc(=O)n2c3nc(ncc13)Nc1ccc(N3CCN(C)CC3)c(c1)S(=O)(=O)NCCC2)(C(C)C)C(C)C
ring closure, isolated yield (from CC(C)[Si](C#Cc1cc(=O)[nH]c2nc(Nc3ccc(N4CCN(C)CC4)c(S(=O)(=O)NCCCO)c3)ncc12)(C(C)C)C(C)C, other bond, 13-membered ring, PPh3/DIAD, THF, 24.3 mM): 15%

CC(C)[Si](C#Cc1cc(=O)n2c3nc(ncc13)Nc1cccc(c1)COCC=CC2)(C(C)C)C(C)C
ring closure, isolated yield (from CC(C)[Si](C#Cc1cc(=O)[nH]c2nc(Nc3cccc(COC/C=C\CO)c3)ncc12)(C(C)C)C(C)C, other bond, 14-membered ring, PPh3/DIAD, THF, 24.0 mM): 56%

CC(C)[Si](C#Cc1cc(=O)n2c3nc(ncc13)Nc1cccc(c1)OCC=CC2)(C(C)C)C(C)C
ring closure, isolated yield (from CC(C)[Si](C#Cc1cc(=O)n(C/C=C\CO)c2nc(Nc3cccc(O)c3)ncc12)(C(C)C)C(C)C, ether bond, 13-membered ring, PPh3/DIAD, THF, 25.0 mM): 33%
ring closure, isolated yield (from CC(C)[Si](C#Cc1cc(=O)n(C/C=C\CO)c2nc(Nc3cccc(O)c3)ncc12)(C(C)C)C(C)C, ether bond, 13-membered ring, PPh3/DIAD, THF, 278.0 mM): 52%

CC(C)[Si](C#Cc1cc(=O)n2c3nc(ncc13)Nc1cccc(c1)OCCC2)(C(C)C)C(C)C
ring closure, isolated yield (from CC(C)[Si](C#Cc1cc(=O)n(CCCO)c2nc(Nc3cccc(O)c3)ncc12)(C(C)C)C(C)C, ether bond, 12-membered ring, PPh3/DIAD, THF, 52.0 mM): 31%

CC(C)[Si](C#Cc1cc(=O)n2c3nc(ncc13)Nc1cccc(c1)OC[C@H]1CC[C@H](C1)C2)(C(C)C)C(C)C
ring closure, isolated yield (from CC(C)[Si](C#Cc1cc(=O)[nH]c2nc(Nc3cccc(OC[C@H]4CC[C@@H](CO)C4)c3)ncc12)(C(C)C)C(C)C, other bond, 14-membered ring, PPh3/DIAD, THF, 183.0 mM): 26%

CC1CCCCOc2cc(ccc2N2CCN(C)CC2)Nc2ncc3c(C#C[Si](C(C)C)(C(C)C)C(C)C)cc(=O)n1c3n2 (stereo not drawn)
ring closure, isolated yield (from CC(O)CCCCOc1cc(Nc2ncc3c(C#C[Si](C(C)C)(C(C)C)C(C)C)cc(=O)[nH]c3n2)ccc1N1CCN(C)CC1, other bond, 14-membered ring, PPh3/DIAD, THF, 24.0 mM): 19%

COCCN1CCN(c2ccc3cc2NC(=O)CCCn2c(=O)cc(C#C[Si](C(C)C)(C(C)C)C(C)C)c4cnc(nc42)N3)CC1
ring closure, isolated yield (from COCCN1CCN(c2ccc(Nc3ncc4c(C#C[Si](C(C)C)(C(C)C)C(C)C)cc(=O)[nH]c4n3)cc2NC(=O)CCCO)CC1, other bond, 13-membered ring, PPh3/DEAD, THF, 25.7 mM): 42%

Cc1c(C#C[Si](C(C)C)(C(C)C)C(C)C)c2cnc3nc2n(c1=O)CC=CCOc1cccc(c1)N3
ring closure, isolated yield (from Cc1c(C#C[Si](C(C)C)(C(C)C)C(C)C)c2cnc(Nc3cccc(O)c3)nc2n(C/C=C\CO)c1=O, ether bond, 13-membered ring, PPh3/DIAD, THF, 180.0 mM): 52%

Cc1c(C#C[Si](C(C)C)(C(C)C)C(C)C)c2cnc3nc2n(c1=O)CCCCCOc1cc(ccc1N1CCN(C)CC1)N3
ring closure, isolated yield (from Cc1c(C#C[Si](C(C)C)(C(C)C)C(C)C)c2cnc(Nc3ccc(N4CCN(C)CC4)c(OCCCCCO)c3)nc2[nH]c1=O, other bond, 14-membered ring, PPh3/DEAD, THF, 94.8 mM): 51%

1^6-methyl-3^4-(4-methylpiperazin-1-yl)-1^5-((triisopropylsilyl)ethynyl)-1^7,1^8-dihydro-4-oxa-2-aza-1(2,8)-pyrido[2,3-d]pyrimidina-3(1,3)-benzenacyclooctaphan-1^7-one
ring closure, isolated yield (other bond, 13-membered ring, PPh3/DIAD, THF, 107.0 mM): 56%

3^4-(4-(2-Methoxyethyl)piperazin-1-yl)-1^5-((triisopropylsilyl)ethynyl)-1^7,1^8-dihydro-4-oxa-2-aza-1(2,8)-pyrido[2,3-d]pyrimidina-3(1,3)-benzenacyclooctaphan-1^7-one
ring closure, isolated yield (other bond, 13-membered ring, PPh3/DEAD, THF, 83.2 mM): 49%

3^4-(4-Methylpiperazin-1-yl)-1^5-((triisopropylsilyl)ethynyl)-1^7,1^8-dihydro-2,6-diaza-1(2,8)-pyrido[2,3-d]pyrimidina-3(1,3)-benzenacyclooctaphane-1^7,7-dione
ring closure, isolated yield (other bond, 13-membered ring, PPh3/DEAD, DCM, 130.0 mM): 38%

3^4-(4-Methylpiperazin-1-yl)-1^5-((triisopropylsilyl)ethynyl)-1^7,1^8-dihydro-4,7-dioxa-2-aza-1(2,8)-pyrido[2,3-d]pyrimidina-3(1,3)-benzenacyclononaphan-1^7-one
ring closure, isolated yield (other bond, 14-membered ring, PPh3/DEAD, THF, 134.0 mM): 29%

3^4-(4-Methylpiperazin-1-yl)-1^5-((triisopropylsilyl)ethynyl)-1^7,1^8-dihydro-4-oxa-2-aza-1(2, 8)-pyrido[2,3-d]pyrimidina-3(1,3)-benzenacyclodecaphan-1^7-one
ring closure, isolated yield (other bond, 15-membered ring, PPh3/DEAD, THF, 158.0 mM): 41%

3^4-(4-Methylpiperazin-1-yl)-1^5-[2-(triisopropylsilyl)ethynyl]-1^7,1^8-dihydro-2,4-diaza-1(2,8)-pyrido[2,3-d]pyrimidine-3(1,3)-benzenacyclooctaphane-1^7,5-dione
ring closure, isolated yield (other bond, 13-membered ring, PPh3/DEAD, THF, 162.0 mM): 62%

3^4-(4-methylpiperazin-1-yl)-1^5-((triisopropylsilyl)ethynyl)-1^7,1^8-dihydro-2,5-diaza-1(2,8)-pyrido[2,3-d]pyrimidina-3(1,3)-benzenacyclooctaphane-1^7,4-dione
ring closure, isolated yield (other bond, 13-membered ring, PPh3/DIAD, THF, 43.7 mM): 20%

3^4-(4-methylpiperazin-1-yl)-1^5-((triisopropylsilyl)ethynyl)-1^7,1^8-dihydro-6-oxa-2-aza-1(2, 8)-pyrido[2,3-d]pyrimidina-3(1,3)-benzenacyclooctaphan-1^7-one
ring closure, isolated yield (other bond, 13-membered ring, PPh3/DEAD, THF, 82.8 mM): 77%

4-Methyl-3^4-(4-methylpiperazin-1-yl)-1^5-((triisopropylsilyl)ethynyl)-1^7,1^8-dihydro-2,4-diaza-1(2,8)-pyrido[2,3-d]pyrimidina-3(1,3)-benzenacyclooctaphane-1^7,5-dione
ring closure, isolated yield (other bond, 13-membered ring, PPh3/DIAD, THF, 158.0 mM): 38%

5-Methyl-3^4-(4-methylpiperazin-1-yl)-1^5-((triisopropylsilyl)ethynyl)-1^7,1^8-dihydro-2,5-diaza-1(2,8)-pyrido[2,3-d]pyrimidina-3(1,3)-benzenacyclooctaphane-1^7,6-dione
ring closure, isolated yield (other bond, 13-membered ring, PPh3/DEAD, THF, 158.0 mM): 75%

C=Cc1c(-c2ccccc2Cl)c(=O)n(C)c2nc(Nc3ccc(N4CCN(C)CC4)cc3OC)ncc12 [Example 171, 6-(2-chlorophenyl)-5-ethenyl-2-{[2-methoxy-4-(4-methylpiperazin-1-yl)phenyl]amino}-8-methylpyrido[2,3-d]pyrimidin-7-one]
IC50 [1]: > 3000 nM
IC50 [2]: > 10000 nM

C#Cc1cc(=O)n(C2CCCC2)c2nc(Nc3cccc(N(C)[C@H]4C[C@@H](CS(C)(=O)=O)C4)c3)ncc12 [Example 203]
IC50 [1]: > 3000 nM
IC50 [3]: > 3000 nM
IC50 [2]: < 1000 nM

(5^1S,5^3R)-1^4-(4-Methylpiperazin-1-yl)-3^5-((triisopropylsilyl)ethynyl)-3^7,3^8-dihydro-7-oxa-2-aza-3(2,8)-pyrido[2,3-d]pyrimidina-1(1,3)-benzena-5(1,3)-cyclopentanacycloheptaphan-3^7-one
ring closure, isolated yield (other bond, 14-membered ring, PPh3/DIAD, THF, 93.0 mM): 17%
